Legend:
5-lipoxygenase = biological target: T1, 5-lipoxygenase (Rattus norvegicus, UniProt P12527); experiment: 5-Lipoxygenase activity-inhibiting action (5-HETE biosynthesis, rat basophil leukemia-1 cell supernatant); assay type: biochemical
T1 construct: The resulting supernatant liquid was used as an enzymatic solution; endogenous in cells; host or cells: rat basophil leukemia-1 (RBL-1) cells, supernatant after sonication
T1 sequence (P12527 1-673): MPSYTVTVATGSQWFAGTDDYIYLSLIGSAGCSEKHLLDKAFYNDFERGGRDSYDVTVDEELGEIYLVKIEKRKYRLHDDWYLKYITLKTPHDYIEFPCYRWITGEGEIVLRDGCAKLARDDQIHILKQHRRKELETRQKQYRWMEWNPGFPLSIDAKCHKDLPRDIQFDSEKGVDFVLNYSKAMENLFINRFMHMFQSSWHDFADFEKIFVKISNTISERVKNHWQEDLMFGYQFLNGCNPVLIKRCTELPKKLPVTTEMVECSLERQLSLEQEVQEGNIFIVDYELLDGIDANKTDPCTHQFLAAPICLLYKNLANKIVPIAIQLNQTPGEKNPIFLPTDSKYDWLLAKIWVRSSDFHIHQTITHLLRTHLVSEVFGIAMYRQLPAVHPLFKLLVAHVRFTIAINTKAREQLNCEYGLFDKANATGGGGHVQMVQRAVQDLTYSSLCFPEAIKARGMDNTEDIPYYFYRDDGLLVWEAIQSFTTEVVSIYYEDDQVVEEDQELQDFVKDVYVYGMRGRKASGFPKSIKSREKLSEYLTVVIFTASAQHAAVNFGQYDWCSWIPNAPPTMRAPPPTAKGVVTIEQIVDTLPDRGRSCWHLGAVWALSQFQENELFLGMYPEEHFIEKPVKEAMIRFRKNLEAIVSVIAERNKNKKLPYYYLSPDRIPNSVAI
Description: 5-Lipoxygenase activity-inhibiting action
Rat basophil leukemia-1 cells were suspended in a 50 mM phosphate buffer solution (PBS) of pH 7.0 containing 1 mM of EDTA, 0.1% of gelatin and 14 μM of indometacin so that the resulting suspension contained 5×10^7 cels cells/ml ml. The suspension was subjected to an ultrasonic treatment and then to centrifugation (10,000G, 20 minutes). The resulting supernatant liquid was used as an enzymatic solution. 10 μl of a test compound solution was added to 460 μl of the enzymatic solution and a reaction was conducted at 37° C. for 5 minutes. Thereto were added 7.4 KBq of ^14 C-arachidonic acid and a 100 mM aqueous calcium chloride solution, and a reaction was conducted at 37° C. for 10 minutes. The reaction mixture was ice-cooled and then adjusted to pH 3 with 1N hydrochloric acid to terminate the reaction. Thereafter, extraction with 5 ml of chloroform was conducted. The extract was subjected to evaporation to dryness in the presence of nitrogen gas, and the residue was dissolved in a 2:1 mixture of chloroform and methanol. The solution was developed by thin-layer chromatography using Kieselgel 60 F254, according to the method of Jakschik, B. A. et al. [Biachen. Biophys. Res. Commun. 95, 103 (1980)]. The radioactivity of 5-hydroxyeicosatetraenoic acid (5-HETE) was measured by a liquid scintillation counter (LSC-900 manufactured by Aroka) to determine the ratio of 5-HETE biosynthesis inhibition of test compound-added group to control group, after which there was determined a concentration of test compound at which the activity of 5-lipoxygenase was inhibited by 50%, i.e. an IC50. The test compound was used in a diluted form by dissolving it in dimethyl sulfoxide. The results are shown in Tables 1, 2 and 3 which appear later.

mast cells = experiment: Membrane-stabilizing action (mast cell degranulation); assay type: cell-based; conditions: Rattus norvegicus, 10^-4 M
Description: Membrane-stabilizing action
This test was conducted according to the method of Schwartz, J. et al. [Int. Arch. Allergy 30, 67 (1966)].
That is, 10 ml each of Hnak's balanced salt solution containing 10 units/ml of heparin was administered to rats intraperitoneally. After gentle massage of the abdomen for 2 minutes, peritoneal exudate cells (PEC) were obtained and washed 3 times with PBS containing 0.1% of bovine serum albumin (BSA). Mast cells in the suspension of PEC were stained with 0.2% of Neutral Red, and PEC were adjusted to a concentration of 4×10^5 mast cells/ml using PBS containing 0.1% of BSA. The cell suspension (50 μl) was incubated with 50 μl of a test compound solution at 37° C. for 5 minutes, then challenged with anti-egg albumin rat serum (50 μl, 1:40) and egg albumin (50 μl, 10 mg/ml) and further incubation was performed for 10 minutes. The reaction mixture was ice-cooled to terminate the reaction. Thereafter the number of mast cells undergoing degranulation was assessed under microscope observation to determine the menbrane-stabilizing action of the test compound.

tracheal chain = experiment: Histamine antagonism (isolated guinea pig tracheal chain contraction); assay type: cell-based; conditions: Cavia porcellus, 5 min; 10^-5 M test compound; 3×10^-5 M histamine hydrochloride
Description: Guinea pigs were sacrificed and the tracheae were isolated. Each trachea was cut open at the center of the tracheal cartilage, and was cut in the vertical direction to separate into individual segments. Three of these segments were combined to form a tracheal chain. The tracheal chain was suspended in a Magnus tube filled with a Tyrode's solution (NaCl: 137 mX, KCl: 2.7 mM, CaCl2 : […], MgCl2 : 1.1 mM, NaHPO4 : 0.4 mM, NaHCO3 : 12.0 mM, glucose: 5.6 mM) kept at 37° C., while applying a load of 0.5 g. A mixed gas consisting of 95% of O2 and 5% of CO2 was constantly passed through the tube, and the contraction of the smooth muscle was recorded on a polygraph (U-228 manufactured by NIPPON DENKI KAGAKU) via an isotonic transducer (TD-112S manufactured by Nihon Koden). Each test compound was incubated for 5 minutes before the addition of 3×10^-5 M of histamine hydrochloride (a product of Wako Pure Chemical Industries, Ltd.).

TXA2 synthetase = biological target: T2, TXA2 synthetase (Homo sapiens, UniProt P24557); experiment: TX synthesis-inhibiting action (thromboxane synthetase kit, human platelet microsome); assay type: biochemical; conditions: 3 × 10^-6 M
T2 construct: human platelet microsome fraction; purchased Funakoshi: Eldan Tech; host or cells: human platelet microsome fraction (thromboxane synthetase kit)
T2 sequence (P24557 1-533): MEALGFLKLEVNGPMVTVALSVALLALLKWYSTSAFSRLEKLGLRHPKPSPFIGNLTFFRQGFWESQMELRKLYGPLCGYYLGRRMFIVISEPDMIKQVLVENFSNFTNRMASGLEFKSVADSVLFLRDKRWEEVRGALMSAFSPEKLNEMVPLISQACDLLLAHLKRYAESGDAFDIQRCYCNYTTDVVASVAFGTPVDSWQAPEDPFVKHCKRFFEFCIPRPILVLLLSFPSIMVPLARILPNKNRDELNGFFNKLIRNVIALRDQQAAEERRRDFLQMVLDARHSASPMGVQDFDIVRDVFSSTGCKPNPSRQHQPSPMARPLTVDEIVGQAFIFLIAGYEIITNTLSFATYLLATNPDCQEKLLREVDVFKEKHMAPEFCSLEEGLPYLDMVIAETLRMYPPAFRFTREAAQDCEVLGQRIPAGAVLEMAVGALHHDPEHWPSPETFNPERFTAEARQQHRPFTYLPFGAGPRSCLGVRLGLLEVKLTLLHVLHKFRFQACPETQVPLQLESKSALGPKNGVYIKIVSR
Description: TX synthesis-inhibiting action
TXA2 synthetase activity was measured by the use of a thromboxane synthetase kit (Funakoshi: Eldan Tech). That is, 0.97 mg of a human platelet microsome fraction was suspended in 1 m of a 50 mM tris-0.1M sodium chloride buffer solution of pH 7.5, and the resulting suspension was ice-cooled. […] of the suspension was placed in a sample tube and a test compound was added thereto. The resulting mixture was preincubated at 25° C. exactly for 3 minutes. Thereto was added 2μ of an ice-cooled acetone solution containing 0.05 mg/m of PGH2, and the resulting mixture was incubated at 25° C. exactly for 3 minutes. 10μ of a 0.25 mM FeCl2 solution was added to terminate the reaction. The resulting mixture was allowed to stand at room temperature for 15 minutes and then subjected to centrifugation at 1,000 G at 4° C. for 10 minutes. The TXB2 content contained in the supernatant was measured by RIA (thromboxanes B2 [3H] RIA Kit: NEN Research Products). The test compound was dissolved in DMSO or distilled water before use. The test was performed in triplicate or quadruplicate assays.

CC(=O)Oc1cccc2cc(C(=O)NCCN3CCN(CCSCc4cccs4)CC3)c(O)cc12 [Example 4, N-[2-[4-(thienylmethylthio)ethyl-1-piperazinyl]ethyl]-5-acetoxy-3-hydroxy-2-naphthamide]
IC50 (5-lipoxygenase; Table 1): 0.32 µM | inhibition at 100 µM (mast cells): 53.7%

CC(=O)Oc1cccc2cc(C(=O)NCCN3CCC(OC(c4ccccc4)c4ccccc4)CC3)c(O)cc12 [Example 5, N-[2-[4-(benzhydryloxy)piperidino]ethyl]-5-acetoxy-3-hydroxy-2-naphthamide]
IC50 (5-lipoxygenase; Table 1): 0.41 µM | inhibition at 100 µM (mast cells): 96.5% | inhibition at 10 µM (tracheal chain): 65.4%

CC(=O)Oc1cccc2cc(C(=O)NCCN3CCN(CCSC(c4ccncc4)c4ccc(Cl)cc4)CC3)c(O)cc12 (stereo not drawn) [Example 15]
IC50 (5-lipoxygenase; Table 3): 0.3 µM | inhibition at 3 µM (TXA2 synthetase): 73.2%

O=C(NCCN1CCN(CCSC(c2ccc(Cl)cc2)c2ccc(Cl)cc2)CC1)c1cc2cccc(O)c2cc1O [Example 21]
IC50 (5-lipoxygenase; Table 1): 0.25 µM | inhibition at 100 µM (mast cells): 100%

O=C(NCCN1CCC(OC(c2ccccc2)c2ccccc2)CC1)c1cc2cccc(O)c2cc1O [Example 34, N-[2-[4-(benzhydryloxy)piperidino]ethyl]-3,5-dihydroxy-2-naphthamide]
IC50 (5-lipoxygenase; Table 1): 0.15 µM | inhibition at 100 µM (mast cells): 41% | inhibition at 10 µM (tracheal chain): 64.7%

O=C(NCCN1CCC(OC(c2ccccc2)c2ccccc2)CC1)c1cc2cc(O)ccc2cc1O [Example 35, N-[2-[4-(benzhydryloxy)piperidino]ethyl]-3,7-dihydroxy-2-naphthamide]
IC50 (5-lipoxygenase; Table 2): 0.27 µM | inhibition at 10 µM (tracheal chain): 67.9%

O=C(NCCN1CCC(OC(c2ccccc2)c2ccccc2)CC1)c1cc2cccc(OCc3cccnc3)c2cc1O [Example 42, N-[2-[4-(benzhydryloxy)piperidino]ethyl]-3-hydroxy-5-(3-pyridylmethoxyl)-2-naphthamide]
IC50 (5-lipoxygenase; Table 1): 5.1 µM | inhibition at 100 µM (mast cells): 60.1%

O=C(NCCN1CCC(OC(c2ccccc2)c2ccccc2)CC1)c1cc2cccc(OCc3ccncc3)c2cc1O [Example 43, N-[2-[4-(benzhydryloxy)piperidino]ethyl]-3-hydroxy-5-(4-pyridylmethoxyl)-2-naphthamide]
IC50 (5-lipoxygenase; Table 2): 0.11 µM | inhibition at 100 µM (mast cells): 80.7% | inhibition at 10 µM (tracheal chain): 48.2% | inhibition at 3 µM (TXA2 synthetase): 75.6%

O=C(NCCCCCSCc1cccs1)c1cc2cccc(O)c2cc1O [Example 44, N-[5-(2-thienylmethylthio)pentyl]-3,5-dihydroxy-2-naphthamide]
inhibition at 3 µM (TXA2 synthetase): 61.8%

— patent US5324728A, “Naphthoic acid derivative” (Fujirebio Inc., priority 1990, dated 1994)
